Reference: US20260357306A1, “ONE-POT FERMENTATIVE PRODUCTION OF GLYCOLATE OR OTHER HYDROXYCARBOXYLIC ACIDS” (PHYCUS BIOTECHNOLOGIES INC., priority 2023, published 2026)

How the values were obtained:
Format in all cases: biochemical
[1] = biological target: T1, Gluconobacter diazotrophicus alcohol dehydrogenase gdiADH, SEQ ID NO: 208 (Gluconacetobacter diazotrophicus, UniProt A9HNA5); experiment: Alcohol dehydrogenase (EG oxidation) Michaelis-Menten kinetics, gdiADH; conditions: role: substrate
T1 sequence (A9HNA5 1-354): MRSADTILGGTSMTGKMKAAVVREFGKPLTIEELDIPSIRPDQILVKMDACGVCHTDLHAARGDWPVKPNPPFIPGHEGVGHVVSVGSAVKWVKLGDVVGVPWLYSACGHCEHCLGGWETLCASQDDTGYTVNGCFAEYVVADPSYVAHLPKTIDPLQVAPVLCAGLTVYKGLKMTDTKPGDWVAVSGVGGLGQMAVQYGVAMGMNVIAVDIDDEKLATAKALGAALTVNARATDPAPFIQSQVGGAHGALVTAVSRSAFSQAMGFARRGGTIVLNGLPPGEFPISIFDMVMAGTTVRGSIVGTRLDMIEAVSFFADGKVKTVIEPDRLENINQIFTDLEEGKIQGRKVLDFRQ
Text: (§1) Enzyme expression and purification: The enzymes of interest were genetically engineered in the E. coli BL21 (DE3) strain on a high copy plasmid under control of the T7 promoter. The enzymes were tagged with a hexahistidine (His-tag) sequence to facilitate for purification. Post-expression, the His-tagged enzymes were selectively bound to a nickel-charged immobilized metal affinity chromatography (IMAC) resin, exploiting the high affinity between histidine residues and nickel ions. Upon washing away non-specifically bound proteins, the His-tagged enzymes were eluted with an imidazole-containing buffer and subsequently used for enzymatic assays.
(§2) Enzyme assays: Standard enzyme characterization protocols were performed to determine the activities of the enzymes. Dehydrogenase activity against the substrates was determined using a continuous assay following the increase in absorbance at 340 nm ε340 (NADH)=6.22 mM^−1. cm^−1, and ε340 (NADPH)=6.2 mM^−1·cm^−1]. […]
(§3) The candidate alcohol dehydrogenase enzymes were next characterized for their enzymatic activity. […] Reactions were initiated by the addition of the purified enzyme and enzymatic activity was measured by monitoring the formation of the product (glycolaldehyde) over time as described in Example 8.1. […]

[2] = biological target: Mycobacterium marinum alcohol dehydrogenase mmaADH, SEQ ID NO: 215 (Mycobacterium marinum, UniProt B2HH60); experiment: Alcohol dehydrogenase (EG oxidation) Michaelis-Menten kinetics, mmaADH; conditions: role: substrate; relative to goxADH
Text: as §1, §2, §3

[3] = biological target: T2, Gluconobacter oxydans alcohol dehydrogenase goxADH (Gox0313), SEQ ID NO: 206 (Gluconobacter oxydans, UniProt Q5FU50); experiment: Alcohol dehydrogenase (EG oxidation) Michaelis-Menten kinetics, goxADH; conditions: role: substrate; relative to goxADH
T2 sequence (Q5FU50 1-343): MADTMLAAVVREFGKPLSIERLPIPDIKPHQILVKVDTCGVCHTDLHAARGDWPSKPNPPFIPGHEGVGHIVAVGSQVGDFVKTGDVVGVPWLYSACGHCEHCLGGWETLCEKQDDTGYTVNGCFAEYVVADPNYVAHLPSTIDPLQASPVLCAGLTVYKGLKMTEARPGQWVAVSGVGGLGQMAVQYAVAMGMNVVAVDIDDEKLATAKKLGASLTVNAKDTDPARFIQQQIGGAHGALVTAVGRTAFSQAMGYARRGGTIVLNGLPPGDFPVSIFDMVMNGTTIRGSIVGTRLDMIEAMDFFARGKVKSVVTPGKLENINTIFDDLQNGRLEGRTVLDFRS
Text: as §1, §2, §3

[4] = biological target: Moraxella sp. (strain TAE123) alcohol dehydrogenase mtaADH, SEQ ID NO: 209 (Moraxella sp. TAE123, UniProt Q8GIX7); experiment: Alcohol dehydrogenase (EG oxidation) Michaelis-Menten kinetics, mtaADH; conditions: role: substrate; relative to goxADH
Text: as §1, §2, §3

[5] = biological target: T3, Gluconobacter morbifer alcohol dehydrogenase gmoADH, SEQ ID NO: 207 (Gluconobacter morbifer, UniProt G6XLF0); experiment: Alcohol dehydrogenase (EG oxidation) Michaelis-Menten kinetics, gmoADH; conditions: role: substrate
T3 sequence (G6XLF0 1-343): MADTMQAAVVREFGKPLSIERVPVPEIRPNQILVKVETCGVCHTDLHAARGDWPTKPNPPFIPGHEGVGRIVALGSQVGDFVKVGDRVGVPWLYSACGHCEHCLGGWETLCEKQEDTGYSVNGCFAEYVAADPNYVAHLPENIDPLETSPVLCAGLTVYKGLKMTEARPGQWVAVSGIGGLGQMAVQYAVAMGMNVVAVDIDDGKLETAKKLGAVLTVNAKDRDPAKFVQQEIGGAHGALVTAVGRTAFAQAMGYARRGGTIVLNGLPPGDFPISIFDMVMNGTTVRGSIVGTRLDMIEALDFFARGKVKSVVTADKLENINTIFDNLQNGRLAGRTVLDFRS
Text: as §1, §2, §3

Chain of Mycobacterium marinum alcohol dehydrogenase mmaADH, SEQ ID NO: 215 (B2HH60 entry or part of it): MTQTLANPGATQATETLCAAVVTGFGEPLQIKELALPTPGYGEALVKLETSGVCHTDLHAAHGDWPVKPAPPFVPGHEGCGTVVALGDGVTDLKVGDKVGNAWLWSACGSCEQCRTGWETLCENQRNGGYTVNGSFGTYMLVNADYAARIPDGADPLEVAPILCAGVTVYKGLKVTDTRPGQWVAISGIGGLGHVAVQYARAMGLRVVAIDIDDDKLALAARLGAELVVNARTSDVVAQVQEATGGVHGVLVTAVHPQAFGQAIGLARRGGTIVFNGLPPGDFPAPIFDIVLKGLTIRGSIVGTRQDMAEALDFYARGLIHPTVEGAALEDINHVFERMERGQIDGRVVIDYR
Chain of Moraxella sp. (strain TAE123) alcohol dehydrogenase mtaADH, SEQ ID NO: 209 (Q8GIX7 whole entry): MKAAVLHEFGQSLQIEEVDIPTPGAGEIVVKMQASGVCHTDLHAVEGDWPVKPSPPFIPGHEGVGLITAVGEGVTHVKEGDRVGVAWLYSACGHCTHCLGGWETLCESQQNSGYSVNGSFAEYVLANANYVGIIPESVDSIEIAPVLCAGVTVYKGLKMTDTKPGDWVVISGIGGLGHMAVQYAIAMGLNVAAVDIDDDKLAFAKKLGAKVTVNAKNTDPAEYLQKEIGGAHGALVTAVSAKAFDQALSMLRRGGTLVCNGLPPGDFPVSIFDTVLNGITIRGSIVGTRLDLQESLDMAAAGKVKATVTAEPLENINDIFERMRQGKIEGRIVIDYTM

OCCO [ethylene glycol]
Relative Vmax ([1]; relative to goxADH): 3.8
maximum catalytic rate (EG turnover rate), fold higher than goxADH ([1]; versus goxADH): 3.8 fold
Relative Vmax [2]: 1.1
Relative Vmax [3]: 1.0
Relative Vmax [4]: 1.6
Relative Vmax ([5]; relative to goxADH): 2.5
maximum catalytic rate (EG turnover rate), fold higher than goxADH ([5]; versus goxADH): 2.5 fold
